Holding throughout (assay): relative viability (nuclei count vs DMSO), 5 days (fraction); higher = more cells survive
Compound in test [1]: CC[C@H](C)N1C=C(C2=C(C=C(C=C21)C3=CN=C(C=C3)N4CCNCC4)C(=O)NCC5=C(C=C(NC5=O)C)C)C [GSK126] + COc1cccc2cc(-c3nc([C@H]4CC[C@H](C(=O)O)CC4)n4ncnc(N)c34)[nH]c12 [OSI-027] (partner 0.5 µM)
In short, it runs like this: (§1)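 Lung cancer cell lines were pin-tool dosed in 1536-well plates on the day after seeding, with either a lone drug or a fixed anchor-drug dose plus five library-drug doses (not always all listed) in √10 steps. Nuclei were counted on 4× images after 5 days. Relative viability is the ratio of treated-well to vehicle-well nuclei counts, with each value a median of duplicate plates.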

Compound in test [2]: NS(=O)(=O)OC[C@@H]1C[C@@H](n2ccc3c(N[C@H]4CCc5ccccc54)ncnc32)C[C@@H]1O [MLN4924] + CC(=O)c1c(C)c2cnc(Nc3ccc(N4CCNCC4)cn3)nc2n(C2CCCC2)c1=O [Palbociclib] (partner 0.5 µM)
In short, it runs like this: as §1

Compound in test [3]: NS(=O)(=O)OC[C@@H]1C[C@@H](n2ccc3c(N[C@H]4CCc5ccccc54)ncnc32)C[C@@H]1O [MLN4924] + COc1cc2c(Oc3ccc(NC(=O)C4(C(=O)Nc5ccc(F)cc5)CC4)cc3F)ccnc2cc1OCCCN1CCOCC1 [Foretinib] (partner 0.25 µM)
In short, it runs like this:
as §1

Compound in test [4]: NS(=O)(=O)OC[C@@H]1C[C@@H](n2ccc3c(N[C@H]4CCc5ccccc54)ncnc32)C[C@@H]1O [MLN4924] + CS(=O)(=O)N1CCN(Cc2cc3nc(-c4cccc5[nH]ncc45)nc(N4CCOCC4)c3s2)CC1 [Pictilisib] (partner 1 µM)
In short, it runs like this: as §1

Consider LXF-289, for which the relative viability turned out to be 0.838 in test [1] (first compound 0.08 µM); 0.86 in test [1] (first compound 0.253 µM); 0.784 in test [1] (first compound 0.8 µM); 0.877 in test [1] (first compound 2.53 µM); 0.768 in test [1] (first compound 8 µM); 0.568 in test [2] (first compound 0.04 µM). In addition, the relative viability in test [2] (first compound 0.1265 µM) turned out to be 0.458; in test [2] (first compound 0.4 µM) it was 0.472; in test [2] (first compound 1.265 µM), 0.194; in test [2] (first compound 4 µM) it was 0.112; in test [3] (first compound 0.04 µM), 0.846; in test [3] (first compound 0.1265 µM), 0.564. Further, the relative viability stood at 0.565 in test [3] (first compound 0.4 µM); 0.188 in test [3] (first compound 1.265 µM); 0.0965 in test [3] (first compound 4 µM); 0.683 in test [4] (first compound 0.04 µM); 0.688 in test [4] (first compound 0.1265 µM); 0.374 in test [4] (first compound 0.4 µM). The figures for the relative viability in test [4] (first compound 1.265 µM) and in test [4] (first compound 4 µM) were 0.134 and 0.0975, respectively.

As to NCI-H23, the relative viability in test [1] (first compound 0.08 µM) came to 0.697; in test [1] (first compound 0.253 µM), 0.6; in test [1] (first compound 0.8 µM), 0.668; in test [1] (first compound 2.53 µM), 0.682; in test [1] (first compound 8 µM), 0.559; in test [2] (first compound 0.04 µM), 0.478. Also, the relative viability amounted to 0.441 in test [2] (first compound 0.1265 µM); 0.26 in test [2] (first compound 0.4 µM); 0.175 in test [2] (first compound 1.265 µM); 0.2 in test [2] (first compound 4 µM); 0.968 in test [3] (first compound 0.04 µM); 0.839 in test [3] (first compound 0.1265 µM). In addition, the relative viability in test [3] (first compound 0.4 µM) worked out at 0.767; in test [3] (first compound 1.265 µM) it was 0.285; in test [3] (first compound 4 µM), 0.184; in test [4] (first compound 0.04 µM) it was 0.249; in test [4] (first compound 0.1265 µM), 0.288; in test [4] (first compound 0.4 µM), 0.183. In addition, the relative viability worked out at 0.0988 in test [4] (first compound 1.265 µM) and 0.141 in test [4] (first compound 4 µM).

Turning to NCI-H322M, the relative viability stood at 0.544 in test [1] (first compound 0.08 µM); 0.571 in test [1] (first compound 0.253 µM); 0.56 in test [1] (first compound 0.8 µM); 0.565 in test [1] (first compound 2.53 µM); 0.62 in test [1] (first compound 8 µM); 0.56 in test [2] (first compound 0.04 µM). Moreover, the relative viability was 0.656 in test [2] (first compound 0.1265 µM); 0.504 in test [2] (first compound 0.4 µM); 0.389 in test [2] (first compound 1.265 µM); 0.395 in test [2] (first compound 4 µM); 1.12 in test [3] (first compound 0.04 µM); 1.22 in test [3] (first compound 0.1265 µM). Besides, the relative viability came out at 0.801 in test [3] (first compound 0.4 µM); 0.284 in test [3] (first compound 1.265 µM); 0.357 in test [3] (first compound 4 µM); 0.556 in test [4] (first compound 0.04 µM); 0.855 in test [4] (first compound 0.1265 µM); 0.669 in test [4] (first compound 0.4 µM). The figures for the relative viability in test [4] (first compound 1.265 µM) and in test [4] (first compound 4 µM) were 0.291 and 0.333, respectively.

For NCI-H358, the relative viability worked out at 1 in test [1] (first compound 0.08 µM); 0.85 in test [1] (first compound 0.253 µM); 0.812 in test [1] (first compound 0.8 µM); 0.904 in test [1] (first compound 2.53 µM); 0.897 in test [1] (first compound 8 µM); 0.127 in test [2] (first compound 0.04 µM). Besides, the relative viability in test [2] (first compound 0.1265 µM) amounted to 0.16; in test [2] (first compound 0.4 µM), 0.115; in test [2] (first compound 1.265 µM) it was 0.0864; in test [2] (first compound 4 µM), 0.0788; in test [3] (first compound 0.04 µM), 0.781; in test [3] (first compound 0.1265 µM), 0.694. Besides, the relative viability in test [3] (first compound 0.4 µM) worked out at 0.397; in test [3] (first compound 1.265 µM) it was 0.0949; in test [3] (first compound 4 µM), 0.094; in test [4] (first compound 0.04 µM), 0.481; in test [4] (first compound 0.1265 µM), 0.496; in test [4] (first compound 0.4 µM) it was 0.227. Also, the results for the relative viability in test [4] (first compound 1.265 µM) and in test [4] (first compound 4 µM) were 0.175 and 0.188, respectively.

In the case of NCI-H441, the relative viability was determined as 0.949 in test [1] (first compound 0.08 µM); 0.686 in test [1] (first compound 0.253 µM); 0.637 in test [1] (first compound 0.8 µM); 0.677 in test [1] (first compound 2.53 µM); 0.543 in test [1] (first compound 8 µM); 0.236 in test [2] (first compound 0.04 µM). Also, the relative viability is 0.224 in test [2] (first compound 0.1265 µM); 0.165 in test [2] (first compound 0.4 µM); 0.104 in test [2] (first compound 1.265 µM); 0.101 in test [2] (first compound 4 µM); 0.923 in test [3] (first compound 0.04 µM); 0.79 in test [3] (first compound 0.1265 µM). Also, the relative viability amounted to 0.515 in test [3] (first compound 0.4 µM); 0.238 in test [3] (first compound 1.265 µM); 0.183 in test [3] (first compound 4 µM); 0.471 in test [4] (first compound 0.04 µM); 0.285 in test [4] (first compound 0.1265 µM); 0.251 in test [4] (first compound 0.4 µM). Also, the relative viability in test [4] (first compound 1.265 µM) amounted to 0.136; in test [4] (first compound 4 µM), 0.139.

Consider NCI-H460, for which the relative viability stood at 0.843 in test [1] (first compound 0.08 µM); 0.615 in test [1] (first compound 0.253 µM); 0.622 in test [1] (first compound 0.8 µM); 0.718 in test [1] (first compound 2.53 µM); 0.656 in test [1] (first compound 8 µM); 0.189 in test [2] (first compound 0.04 µM). Further, the relative viability in test [2] (first compound 0.1265 µM) was determined as 0.121; in test [2] (first compound 0.4 µM) it was 0.0985; in test [2] (first compound 1.265 µM) it was 0.0213; in test [2] (first compound 4 µM), 0.0283; in test [3] (first compound 0.04 µM), 1.01; in test [3] (first compound 0.1265 µM) it was 1.09. In addition, the relative viability in test [3] (first compound 0.4 µM) turned out to be 0.855; in test [3] (first compound 1.265 µM), 0.297; in test [3] (first compound 4 µM) it was 0.0485; in test [4] (first compound 0.04 µM), 0.506; in test [4] (first compound 0.1265 µM), 0.729; in test [4] (first compound 0.4 µM), 0.618. Besides, the relative viability in test [4] (first compound 1.265 µM) amounted to 0.191; in test [4] (first compound 4 µM), 0.0906.

For the cell line NCI-H520, the relative viability in test [1] (first compound 0.08 µM) is 0.313; in test [1] (first compound 0.253 µM), 0.269; in test [1] (first compound 0.8 µM), 0.289; in test [1] (first compound 2.53 µM) it was 0.307; in test [1] (first compound 8 µM), 0.314; in test [2] (first compound 0.04 µM), 0.224. Moreover, the relative viability came to 0.226 in test [2] (first compound 0.1265 µM); 0.153 in test [2] (first compound 0.4 µM); 0.145 in test [2] (first compound 1.265 µM); 0.156 in test [2] (first compound 4 µM); 0.732 in test [3] (first compound 0.04 µM); 0.502 in test [3] (first compound 0.1265 µM). For the same cell line, the relative viability turned out to be 0.409 in test [3] (first compound 0.4 µM); 0.305 in test [3] (first compound 1.265 µM); 0.205 in test [3] (first compound 4 µM); 0.322 in test [4] (first compound 0.04 µM); 0.402 in test [4] (first compound 0.1265 µM); 0.359 in test [4] (first compound 0.4 µM). In addition, the figures for the relative viability in test [4] (first compound 1.265 µM) and in test [4] (first compound 4 µM) were 0.276 and 0.238, respectively.

The values are drawn from the supplement of paper PMC10307832.
